Assay results from patent publication US7767665B2, “1,3-benzothiazinone derivatives and use thereof” (Takeda Pharmaceutical Company Limited, priority 2001, dated 2010).
Where a name gives a salt, the structure may show the parent alone.

Row | SMILES | melting point
1 | CSc1cncc(-c2nc(=O)c3ccccc3s2)n1 [Example 287, 2-[6-(Methylthio)-2-pyrazinyl]-4H-1,3-benzothiazine-4-one] | 202.4 to 202.9 °C
2 | Cn1ccnc1Sc1cccc(-c2nc(=O)c3ccccc3s2)n1 [Example 271, 2-{6-[(1-Methyl-1H-imidazol-2-yl)thio]-2-pyridyl}-4H-1,3-benzothiazine-4-one] | 171.9 to 172.3 °C
3 | CCCSc1cccc(-c2nc(=O)c3ccccc3s2)n1 [Example 59, 2-(6-Propylthio-2-pyridyl)-4H-1,3-benzothiazine-4-one] | 124.5 to 125.1 °C
4 | CC(C)CCS(=O)(=O)c1cccc(-c2nc(=O)c3ccccc3s2)n1 [Example 158, 2-(6-Isoamylsulfonyl-2-pyridyl)-4H-1,3-benzothiazine-4-one] | 145.5 to 147 °C
5 | O=C(O)CNc1nccc(-c2nc(=O)c3ccccc3s2)n1 [Example 296, {[6-(4-Oxo-4H-1,3-benzothiazin-2-yl)-2-pyrimidinyl]amino}acetic acid] | 283 to 284 °C
6 | Cc1nc(-c2nc(=O)c3ccccc3s2)cs1 [Example 347, 2-(2-Methyl-1,3-thiazol-4-yl)-4H-1,3-benzothiazin-4-one] | 219 to 220 °C
7 | CC[S+]([O-])c1cccc(-c2nc(=O)c3ccccc3s2)n1 (centres unmarked) [Example 149, 2-[6-(Ethylsulfinyl)-2-pyridyl]-4H-1,3-benzothiazine-4-one] | 181.5 to 182.1 °C
8 | O=C(c1ccc2c(=O)nc(-c3ccccn3)sc2c1)N1CCOCC1 [Example 240, 7-(4-Morpholinocarbonyl)-2-(2-pyridyl)-4H-1,3-benzothiazine-4-one] | 217.6 to 218.8 °C
9 | CSc1ccc(Oc2ccc(-c3nc(=O)c4ccccc4s3)cn2)cc1 [Example 89] | 140.5 to 140.6 °C
10 | O=c1nc(-c2cccc(C[S+]([O-])Cc3ccccc3)n2)sc2ccccc12 (centres unmarked) [Example 256, 2-[6-[(Benzylsulfinyl)methyl]-2-pyridyl]-4H-1,3-benzothiazine-4-one] | 187 to 189 °C
11 | O=c1nc(-c2cccc(CSc3ccccn3)n2)sc2ccccc12 [Example 272, 2-{6-[(2-Pyridylthio)methyl]-2-pyridyl}-4H-1,3-benzothiazine-4-one] | 151.3 to 151.9 °C
12 | CCOC(=O)C(C)Cc1cccc(-c2nc(=O)c3ccccc3s2)n1 (centres unmarked) [Example 315, Ethyl 2-methyl-3-[6-(4-oxo-4H-1,3-benzothiazin-2-yl)-2-pyridyl]propionate] | 120.2 to 120.7 °C
13 | CCc1cccc(-c2nc(=O)c3ccccc3s2)n1 [Example 140, 2-(6-Ethyl-2-pyridyl)-4H-1,3-benzothiazine-4-one] | 150.5 to 150.9 °C
14 | C[S+]([O-])c1cc(CCC(=O)O)cc(-c2nc(=O)c3ccccc3s2)n1 (centres unmarked) [Example 344, 3-[2-(methylsulfinyl)-6-(4-oxo-4H-1,3-benzothiazin-2-yl)-4-pyridyl]propionic acid] | 265.5 to 266 °C
15 | O=C(O)CCOCc1cccc(-c2nc(=O)c3ccccc3s2)n1 [Example 337, 3-[(6-(4-oxo-4H-1,3-benzothiazin-2-yl)-2-pyridyl)methoxy]propionic acid] | 176.6 to 176.7 °C
16 | O=C(O)CCc1cccc(-c2nc(=O)c3ccc(Cl)cc3s2)n1 [Example 6, 3-[6-(7-Chloro-4-oxo-4H-1,3-benzothiazin-2-yl)-2-pyridyl]propionic acid] | 224.4 to 224.7 °C
17 | COC(CCCNc1ccc(-c2nc(=O)c3ccccc3s2)cn1)OC [Example 86, 2-[6-[(4,4-Dimethoxybutyl)amino]-3-pyridyl]-4H-1,3-benzothiazine-4-one] | 157.2 to 158.5 °C
18 | COC(=O)CS(=O)(=O)Cc1cccc(-c2nc(=O)c3ccccc3s2)n1 [Example 260, Methyl ({[6-(4-oxo-4H-1,3-benzothiazin-2-yl)-2-pyridyl]methyl}sulfonyl)acetate] | 205 to 207 °C
19 | CCC(=O)N(C)c1cccc(-c2nc(=O)c3ccccc3s2)n1 [Example 114, N-Methyl-N-[6-(4-oxo-4H-1,3-benzothiazin-2-yl)-2-pyridyl]propanamide] | 200.6 to 201.2 °C
20 | Cc1ccc2c(=O)nc(-c3cccc(CCC(=O)OC(C)(C)C)n3)sc2c1 [Example 175, tert-Butyl 3-[6-(7-methyl-4-oxo-4H-1,3-benzothiazin-2-yl)-2-pyridyl]propanoate] | 134.8 to 134.9 °C
21 | CS(=O)(=O)c1nccc(-c2nc(=O)c3ccccc3s2)n1 [Example 286, 2-[2-(Methylsulfonyl)-6-pyrimidinyl]-4H-1,3-benzothiazine-4-one] | 269.5 to 270 °C
22 | CC(C)(C)OC(=O)/C=C/c1cccc(-c2nc(=O)c3ccccc3s2)n1 [Example 147, tert-Butyl (E)-3-[6-(4-oxo-4H-1,3-benzothiazin-2-yl)-2-pyridyl]-2-propenoate] | 175.5 to 177.6 °C
23 | Cc1cc(CCC(=O)OC(C)(C)C)cc(-c2nc(=O)c3ccccc3s2)n1 [Example 319, tert-Butyl 3-[2-methyl-6-(4-oxo-4H-1,3-benzothiazin-2-yl)-4-pyridyl]propanoate] | 129.4 to 130.5 °C
24 | CCC[S+]([O-])Cc1cccc(-c2nc(=O)c3ccccc3s2)n1 (centres unmarked) [Example 253] | 171 to 173 °C

Row | SMILES | melting point
25 | CCOC(=O)CCCCc1cccc(-c2nc(=O)c3ccccc3s2)n1 [Example 303, Ethyl 5-[6-(4-oxo-4H-1,3-benzothiazin-2-yl)-2-pyridyl]valerate] | 87 to 88 °C
26 | O=c1nc(-c2cccc(CN3CCC(c4ccccc4)CC3)n2)sc2ccccc12 [Example 267, 2-{6-[(4-Phenyl-1-piperidyl)methyl]-2-pyridyl}-4H-1,3-benzo thiazine-4-one] | 207 to 208 °C
27 | O=c1nc(-c2cccc(SCCCc3ccccc3)n2)sc2ccccc12 [Example 164, 2-[6-(3-Phenylpropylthio)-2-pyridyl]-4H-1,3-benzothiazine-4-one] | 192.5 to 194 °C
28 | CCCCCCNc1cc(-c2nc(=O)c3ccccc3s2)ccn1 [Example 72, 2-[2-(Hexylamino)-4-pyridyl]-4H-1,3-benzothiazine-4-one] | 133.8 to 134.6 °C
29 | Cc1cccc2c(=O)nc(-c3cccc(C(=O)OC(C)(C)C)n3)sc12 [Example 232, tert-Butyl 6-(8-methyl-4-oxo-4H-1,3-benzothiazin-2-yl)-2-pyridinecarboxylate] | 204.3 to 204.7 °C
30 | COC(=O)C[S+]([O-])Cc1cccc(-c2nc(=O)c3ccccc3s2)n1 (centres unmarked) [Example 259, Methyl ({[6-(4-oxo-4H-1,3-benzothiazin-2-yl)-2-pyridyl]methyl}sulfinyl)acetate] | 149.5 to 151 °C
31 | Cc1cc(CCC(=O)O)nc(-c2nc(=O)c3ccccc3s2)c1 [Example 191, 3-[4-Methyl-6-(4-oxo-4H-1,3-benzothiazin-2-yl)-2-pyridyl]propionic acid] | 244.6 to 245.5 °C
32 | Cl.NCCc1ccnc(-c2nc(=O)c3ccccc3s2)c1 | 238 °C (dec.)
33 | Cc1ccc2sc(-c3ccccn3)nc(=O)c2c1 [Example 13, 6-Methyl-2-(2-pyridyl)-4H-1,3-benzothiazine-4-one] | 219.8 to 220.8 °C
34 | NCCc1ccnc(-c2nc(=O)c3ccc(Cl)cc3s2)c1 (as salt: trifluoroacetic acid salt) [Example 223, 2-[4-(2-Aminoethyl)-2-pyridyl]-7-chloro-4H-1,3-benzothiazine-4-one trifluoroacetic acid salt] | 212 °C (dec.)
35 | O=c1nc(-c2cccc([S+]([O-])CCCc3ccccc3)n2)sc2ccccc12 (centres unmarked) [Example 165, 2-[6-[(3-Phenylpropyl)sulfinyl]-2-pyridyl]-4H-1,3-benzothiazine-4-one] | 164.5 to 165.5 °C
36 | O=C(NCc1cccc(-c2nc(=O)c3ccccc3s2)n1)C(F)(F)F [Example 209, 2,2,2-Trifluoro-N-[[6-(4-oxo-4H-1,3-benzothiazin-2-yl)-2-pyridyl]methyl]acetamide] | 226.4 to 227.4 °C
37 | Cc1cccc2c(=O)nc(-c3cccc(CCC(=O)OC(C)(C)C)n3)sc12 [Example 338, tert-Butyl 3-[6-(8-methyl-4-oxo-4H-1,3-benzothiazin-2-yl)-2-pyridyl]propanoate] | 109.9 to 110 °C
38 | CN(CC(=O)O)c1nccc(-c2nc(=O)c3ccccc3s2)n1 [Example 294, {Methyl [6-(4-oxo-4H-1,3-benzothiazin-2-yl)-2-pyrimidinyl]amino}acetic acid] | 215 °C (dec.)
39 | Cc1cccc2sc(-c3ccccn3)nc(=O)c12 [Example 17, 5-Methyl-2-(2-pyridyl)-4H-1,3-benzothiazine-4-one] | 150.8 to 151.3 °C
40 | CCOP(=O)(CCc1ccnc(-c2nc(=O)c3ccc(Cl)cc3s2)c1)OCC | 137.7 to 139.1 °C
41 | N#Cc1cccc(-c2nc(=O)c3ccccc3s2)n1 [Example 242, 6-(4-Oxo-4H-1,3-benzothiazin-2-yl)-s-pyridinecarbonitrile] | 263.7 to 264.2 °C
42 | CSc1ccc(-c2nc(=O)c3ccccc3s2)cn1 [Example 171, 2-[6-(Methylthio)-3-pyridyl]-4H-1,3-benzothiazine-4-one] | 167.9 to 169.9 °C
43 | O=c1nc(-c2cccc(S(=O)(=O)CCc3ccccc3)n2)sc2ccccc12 [Example 163, 2-[6-(2-Phenylethyl)sulfonyl-2-pyridyl]-4H-1,3-benzothiazine-4-one] | 161.5 to 163.5 °C
44 | O=c1nc(-c2cccc(-c3ccccc3)n2)sc2ccccc12 [Example 197, 2-(6-Phenyl-2-pyridyl)-4H-1,3-benzothiazine-4-one] | 195.4 to 197 °C
45 | O=C(O)[C@@H]1CCCN1C(=O)CCc1cccc(-c2nc(=O)c3ccccc3s2)n1 [Example 313, 1-{3-[6-(4-Oxo-4H-1,3-benzothiazin-2-yl)-2-pyridyl]propanoyl}proline] | 210.5 to 211 °C
46 | O=c1nc(-c2cccc(SCc3ccccc3)n2)sc2ccccc12 [Example 159, 2-(6-Benzylthio-2-pyridyl)-4H-1,3-benzothiazine-4-one] | 227 to 228 °C
47 | O=C(O)CCc1cccc(-c2nc(=O)c3ccc(C(F)(F)F)cc3s2)n1 [Example 178, 3-[6-(4-Oxo-7-trifluoromethyl-4H-1,3-benzothiazin-2-yl)-2-pyridyl]propionic acid] | 192.9 to 193.1 °C
